Patent US20230348447A1, “OXAZOLIDINONE COMPOUNDS, LIPOSOME COMPOSITIONS COMPRISING OXAZOLIDINONE COMPOUNDS AND METHOD OF USE THEREOF” (priority 2020, published 2023)
In brackets after ≈: the same amount, converted by molar mass. Where two headings read alike, the source gives them in different places.

Key:
[1] = tested on: mitochondrial protein synthesis (COX-1/SDH-A ratio) in H9C2 rat heart myoblast cells; test: Mitochondrial protein synthesis inhibition (MitoBiogenesis in-cell ELISA, COX-1/SDH-A); type: cell-based; conditions: 120 h, five days, read-out: MPS IC50
[2] = tested on: M.tb Erdman; test: Broth microdilution MIC with Alamar blue endpoint (MABA) / OD600; type: cell-based, Mycobacterium tuberculosis
[3] = Liposome loading / encapsulation efficiency (General protocol); conditions: for Maximum encapsulated drug payload: 0.5 M AS; for maximum drug load: no buffer
[4] = tested on: MRSA ATCC 43300; test: MIC against methicillin resistant Staphylococcus aureus (MRSA); conditions: read-out: MRSA MIC, ATCC 43300
[5] = tested on: human hepatocyte/liver (HepG2; ATCC #HB8065) cells; test: In vitro cytotoxicity (PrestoBlue cell viability), HepG2; type: cell-based
[6] = tested on: M. Tuberculosis Erdman or H37Rv vs VERO or HepG2 cells; test: Selectivity Index (mammalian cell IC50 / bacterial MIC); set-up: species or system Mycobacterium tuberculosis
[7] = tested on: MRSA ATCC BAA-1556; test: MIC against methicillin resistant Staphylococcus aureus (MRSA)
[8] = tested on: MRSA 880 NR-49120; test: as above; conditions: read-out: MRSA MIC, 880 NR-49120
[9] = tested on: African green monkey kidney (Vero; ATCC # CCL81) cells; test: In vitro cytotoxicity (PrestoBlue cell viability), Vero; type: cell-based
[10] = tested on: M.tb H37Rv; test: Broth microdilution MIC with Alamar blue endpoint (MABA) / OD600; type: cell-based, Mycobacterium tuberculosis
[11] = Aqueous solubility (visually clear solutions); type: physicochemical; conditions: aqueous, 1 N HCl and/or water added
Description: Working stocks of the compounds were prepared as follows: to an aliquot of a compound (free base) in a powder form 1-1.5 equivalents of HCl in the form of 1 N aqueous solution was added, and the mixture was vortexed until homogeneity. To the resulting cake or syrup, water was added typically to the final 10 mg/ml, and complete dissolution was observed. In some instances, 0.95 equivalents of HCl were added to the free base form of the drug, and 20 mg/ml stock solution was prepared.
Aqueous solubility of the compounds of the present disclosure is illustrated by the following observations of obtaining visually clear solutions: […]

[12] = Mycobacterium tuberculosis, ERDMAN, read-out: Mycobacterium tuberculosis MIC, Erdman
[13] = 1 N TEA-SOS, DL0 750-1500 g/mol PhL
[14] = Homo sapiens, HepG2, 72 h, read-out: Cell viability IC50, HepG2
[15] = read-out: MRSA MIC, ATCC BAA-1556
[16] = Chlorocebus sabaeus, Vero, 72 h, read-out: Cell viability IC50, VERO
[17] = Mycobacterium tuberculosis, H37RV, read-out: MIC (H37Rv)
[18] = Mycobacterium tuberculosis, H37RV, read-out: Mycobacterium tuberculosis MIC, H37Rv
[19] = Mycobacterium tuberculosis, ERDMAN; read-out: Mycobacterium tuberculosis MIC, Erdman
[20] = Homo sapiens, HepG2, 72 h; read-out: Cell viability IC50, HepG2
[21] = Chlorocebus sabaeus, Vero, 72 h; read-out: Cell viability IC50, VERO
[22] = Mycobacterium tuberculosis, H37RV; as determined in Example 2; read-out: MIC (H37Rv)
[23] = Mycobacterium tuberculosis, H37RV; read-out: Mycobacterium tuberculosis MIC, H37Rv

## Cl.Cn1nnc(-c2ccc(-c3ccc(N4C[C@H](CN)OC4=O)cc3F)cn2)n1 [AKG-3]
[1]
  IC50: 0.115 µg/mL
[2]; [12]
  MIC: 0.125 µg/mL
[3]; 0.5 mol% PEG
  Maximum encapsulated drug payload: 590 g/mol PhL
[3]; 5 mol% PEG
  Maximum encapsulated drug payload: 600-606 g/mol PhL
[3]; [13]
  loading efficiency at or near the maximum drug load: at least 97.6%
  maximum drug load: 900-930 g/mol PhL
[3]; PEG-DSG 0.5 mol%, 1 N TEA-SOS, DL0 500 g/mol PhL
  Drug loading efficiency: 100.8
[3]; PEG-DSG 0.5 mol%, […] AS, DL0 250 g/mol PhL
  Drug loading efficiency: 100.4
[3]; PEG-DSG 0.5 mol%, […] AS, DL0 500 g/mol PhL
  Drug loading efficiency: 80.3
[3]; PEG-DSG 5 mol%, 1 N TEA-SOS, DL0 500 g/mol PhL
  Drug loading efficiency: 107.4
[4]
  MIC: 50 µg/mL
[5]; [14]
  IC50: 21.2 µg/mL
[6]
  Selectivity Index (SI) Erd/HepG2: 169.6
  Selectivity Index (SI) Erd/VERO: 142.4
[7]; read-out: MRSA MIC
  MIC: > 50 µg/mL
[7]; [15]
  MIC: 50 µg/mL
[8]
  MIC: 50 µg/mL
[9]; [16]
  IC50: 17.8 µg/mL
[10]; [17]
  MIC: 0.06 µg/mL
[10]; [18]
  MIC: 0.06 µg/mL

## CN(C)CCn1nnc(-c2ccc(-c3ccc(N4C[C@H](CO)OC4=O)cc3F)cn2)n1 [AKG-16]
[1]
  IC50: 0.244 µg/mL (≈ 0.571 µM)
[2]; [19]
  MIC: 0.25 µg/mL (≈ 0.585 µM)
[11]
  Concentration % (w/w) of free base (visually clear solution): 30.0 % (w/w)
[3]; 0.5 mol% PEG
  Maximum encapsulated drug payload: 668-675 g/mol PhL
[3]; 5 mol% PEG
  Maximum encapsulated drug payload: 614-619 g/mol PhL
[3]; [13]
  maximum drug load: 938-951 g/mol PhL
[4]
  MIC: 1.85 µg/mL (≈ 4.33 µM)
[5]; [20]
  IC50: 91 µg/mL (≈ 213 µM)
[7]; [15]
  MIC: 1.85 µg/mL (≈ 4.33 µM)
[8]
  MIC: 1.85 µg/mL (≈ 4.33 µM)
[9]; [21]
  IC50: 97 µg/mL (≈ 227 µM)
[10]; [22]
  MIC: 0.25 µg/mL (≈ 0.585 µM)
[10]; [23]
  MIC: 0.25 µg/mL (≈ 0.585 µM)

## Cl.NCCn1nnnc1-c1ccc(-c2ccc(N3C[C@H](CO)OC3=O)cc2F)cn1 [AKG-22]
[1]
  IC50: 1.18 µg/mL
[2]; [19]
  MIC: 1 µg/mL
[4]
  MIC: 16.7 µg/mL
[5]; [20]
  IC50: 17.2 µg/mL
[6]
  Selectivity Index (SI) Erd/HepG2: 17.2
  Selectivity Index (SI) Erd/VERO: 57.7
[7]; [15]
  MIC: 1.85 to 5.55 µg/mL
[8]
  MIC: 5.55 µg/mL
[9]; [21]
  IC50: 57.7 µg/mL
[10]; [22]
  MIC: 0.5 µg/mL
[10]; [23]
  MIC: 0.5 µg/mL

## Cl.Cl.NCCn1nnc(-c2ccc(-c3ccc(N4C[C@H](CN)OC4=O)cc3F)cn2)n1 [AKG-29]
[1]
  IC50: 4.11 µg/mL
[2]; [12]
  MIC: 0.25 µg/mL
[4]
  MIC: > 50 µg/mL
[5]; [14]
  IC50: 74.4 µg/mL
[6]
  Selectivity Index (SI) Erd/HepG2: 297.6
  Selectivity Index (SI) Erd/VERO: 439.6
[7]; read-out: MRSA MIC
  MIC: > 50 µg/mL
[7]; [15]
  MIC: 50 µg/mL
[8]
  MIC: 50 µg/mL
[9]; [16]
  IC50: 110 µg/mL
[10]; [17]
  MIC: 0.125 µg/mL
[10]; [18]
  MIC: 0.125 µg/mL
